Results reported in US20090227619A1, “Harmine derivatives, intermediates used in their preparations, preparation processes and use therefo” (priority 2003, published 2009).
Where two headings read alike, the source gives them in different places.

Legend:
HepG2 = assay: In vitro cytotoxicity, IC50 by MTT method, HepG2; assay type: cell-based, human; conditions: Homo sapiens; HepG2, MTT; read-out: IC50
How it was run: (§1)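 MTT viability, 48 h exposure: cells 10^5/ml in RPMI1640 + 10% FBS, 37 °C/5% CO2; MTT 4 h, DMSO solubilisation, A490.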

PLA-801 = assay: In vitro cytotoxicity, IC50 by MTT method, PLA-801; assay type: cell-based; conditions: PLA-801, MTT; read-out: IC50
How it was run: as §1

Bel-7402 = assay: In vitro cytotoxicity, IC50 by MTT method, Bel-7402; assay type: cell-based; conditions: Homo sapiens, Bel-7402; BeI7402, MTT; read-out: IC50
How it was run: as §1

BGC-823 = assay: In vitro cytotoxicity, IC50 by MTT method, BGC-823; assay type: cell-based; conditions: Homo sapiens, BGC-823; BGC823, MTT; read-out: IC50
How it was run: as §1

Hela = assay: In vitro cytotoxicity, IC50 by MTT method, Hela; assay type: cell-based; conditions: Homo sapiens; Hela, MTT; read-out: IC50
How it was run: as §1

Lovo = assay: In vitro cytotoxicity, IC50 by MTT method, Lovo; assay type: cell-based; conditions: Homo sapiens; Lovo, MTT; read-out: IC50
How it was run: as §1

NIH3T3 = assay: In vitro cytotoxicity, IC50 by MTT method, NIH3T3; assay type: cell-based; conditions: Mus musculus; NIH3T3, MTT; read-out: IC50
How it was run: as §1

Lewis lung cancer = conditions: Lewis lung cancer; for Body weight of the animals, end, First time / Body weight of the animals, end, Second time: ip × 10qd;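 on all read-outs here: mice implanted subcutaneously in the axilla with Lewis lung tumor cells, treated starting the following day, killed roughly three weeks after implantation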
S180 sarcoma = conditions: S180 sarcoma; for Body weight of the animals, beginning, First time / Body weight of the animals, end, First time / Inhibition rate, First time / Weight of the tumor X ± SD, First time / Body weight of the animals, beginning, Second time / Body weight of the animals, end, Second time / Inhibition rate, Second time: ip × 10qd
Kunming mice = conditions: summary Table 34, compounds marked *, results [153] of the previous tests; in mg/kg; cited from earlier work

Question: Which IC50 (HepG2) does the source give for `O=C(O)c1cc2c(cn1)[nH]c1ccccc12` [Compound 17, β-carboline-3-carboxylic acid] here?
Answer: 280 µM

Question: What about the IC50 (PLA-801) of the same compound?
Answer: 300 µM

Question: What about the IC50 (Bel-7402) of the same compound?
Answer: 230 µM

Question: And the IC50 (BGC-823)?
Answer: 280 µM

Question: And the IC50 (Hela)?
Answer: 220 µM

Question: And the IC50 (Lovo)?
Answer: 170 µM

Question: What about the IC50 (NIH3T3) of the same compound?
Answer: 60 µM

Question: And the “Body weight of the animals, end, First time” value (“Body weight … end, First time” for short) (Lewis lung cancer; Dosage 50 (mg/ml))?
Answer: 25.4 g

Question: What about the “Body weight of the animals, end, Second time” value (shortened to “Body weight … end, Second time”) (Lewis lung cancer; Dosage 50 (mg/ml)) of the same compound?
Answer: 25.4 g

Question: And the “Body weight of the animals, beginning, First time” value (Lewis lung cancer; Dosage 50, ip × 10qd)?
Answer: 19.2 g

Question: And the “Inhibition rate, First time” value (Lewis lung cancer; Dosage 50, ip × 10qd)?
Answer: 31.40%

Question: And the “Weight of the tumor X ± SD, First time” value (Lewis lung cancer; Dosage 50, ip × 10qd)?
Answer: 2.01 ± 0.28 g

Question: And the “Body weight of the animals, beginning, Second time” value (Lewis lung cancer; Dosage 50, ip × 10qd)?
Answer: 20.2 g

Question: And the “Inhibition rate, Second time” value (Lewis lung cancer; Dosage 50, ip × 10qd)?
Answer: 27.98%

Question: And the “Weight of the tumor X ± SD, Second time” value (Lewis lung cancer; Dosage 50, ip × 10qd)?
Answer: 1.75 ± 0.09 g

Question: What about the “Body weight … end, First time” value (Lewis lung cancer; Dosage 100 (mg/ml)) of the same compound?
Answer: 24.8 g

Question: And the “Body weight … end, Second time” value (Lewis lung cancer; Dosage 100 (mg/ml))?
Answer: 24.9 g

Question: What about the “Body weight of the animals, beginning, First time” value (Lewis lung cancer; Dosage 100, ip × 10qd) of the same compound?
Answer: 19.0 g

Question: What about the “Inhibition rate, First time” value (Lewis lung cancer; Dosage 100, ip × 10qd) of the same compound?
Answer: 37.20%

Question: And the “Weight of the tumor X ± SD, First time” value (Lewis lung cancer; Dosage 100, ip × 10qd)?
Answer: 1.84 ± 0.48 g

Question: What about the “Body weight of the animals, beginning, Second time” value (Lewis lung cancer; Dosage 100, ip × 10qd) of the same compound?
Answer: 20.4 g

Question: And the “Inhibition rate, Second time” value (Lewis lung cancer; Dosage 100, ip × 10qd)?
Answer: 37.86%

Question: And the “Weight of the tumor X ± SD, Second time” value (Lewis lung cancer; Dosage 100, ip × 10qd)?
Answer: 1.51 ± 0.09 g

Question: And the “Inhibition rate (%) Lewis cancer” value (Lewis lung cancer; comparison table 43, in vivo)?
Answer: 33.4%

Question: And the “Body weight of the animals, beginning, First time” value (S180 sarcoma; Dosage 50 (mg/ml))?
Answer: 19.2 g

Question: And the “Body weight … end, First time” value (S180 sarcoma; Dosage 50 (mg/ml))?
Answer: 24.7 g

Question: And the “Inhibition rate, First time” value (S180 sarcoma; Dosage 50 (mg/ml))?
Answer: 23.97%

Question: What about the “Weight of the tumor X ± SD, First time” value (S180 sarcoma; Dosage 50 (mg/ml)) of the same compound?
Answer: 2.03 ± 0.24 g

Question: And the “Body weight of the animals, beginning, Second time” value (S180 sarcoma; Dosage 50 (mg/ml))?
Answer: 18.5 g

Question: And the “Body weight … end, Second time” value (S180 sarcoma; Dosage 50 (mg/ml))?
Answer: 25.9 g

Question: And the “Inhibition rate, Second time” value (S180 sarcoma; Dosage 50 (mg/ml))?
Answer: 25.19%

Question: And the “Weight of the tumor X ± SD, Second time” value (S180 sarcoma; Dosage 50, ip × 10qd)?
Answer: 2.02 ± 0.21 g

Question: And the “Body weight of the animals, beginning, First time” value (S180 sarcoma; Dosage 100 (mg/ml))?
Answer: 19.3 g

Question: What about the “Body weight … end, First time” value (S180 sarcoma; Dosage 100 (mg/ml)) of the same compound?
Answer: 24.2 g

Question: What about the “Inhibition rate, First time” value (S180 sarcoma; Dosage 100 (mg/ml)) of the same compound?
Answer: 35.21%

Question: What about the “Weight of the tumor X ± SD, First time” value (S180 sarcoma; Dosage 100 (mg/ml)) of the same compound?
Answer: 1.73 ± 0.16 g

Question: What about the “Body weight of the animals, beginning, Second time” value (S180 sarcoma; Dosage 100 (mg/ml)) of the same compound?
Answer: 18.6 g

Question: What about the “Body weight … end, Second time” value (S180 sarcoma; Dosage 100 (mg/ml)) of the same compound?
Answer: 25.3 g

Question: And the “Inhibition rate, Second time” value (S180 sarcoma; Dosage 100 (mg/ml))?
Answer: 32.96%

Question: What about the “Weight of the tumor X ± SD, Second time” value (S180 sarcoma; Dosage 100, ip × 10qd) of the same compound?
Answer: 1.81 ± 0.20 g

Question: What about the “Inhibition rate (%) S180 sarcomata” value (S180 sarcoma; comparison table 43, in vivo) of the same compound?
Answer: 32.2%

Question: And the LD50 (Kunming mice)?
Answer: 135.22
